Legend:
SH-SY5Y cells = assay: Western blot of SH-SY5Y cell lysates; type: cell-based; conditions: co-treatment with trametinib, in the presence of Aβ1-42 oligomers
Protocol: (§1) Cell culture: SH-SY5Y neuroblastoma cells were cultured at 37° C., 5% CO2., in Dulbecco's Modified Eagle Medium/Ham's F-12 nutrient mixture (DMEM/F12) (Invitrogen, Carlsbad, Calif.) supplemented with 10% heat-inactivated fetal bovine serum containing 100 units/ml penicillin, 100 μg/ml streptomycin. Primary cortical neuron cultures were derived from embryo day 18 (E18) from ICR mice. The dissociated cells were plated on glass cover slips coated with poly-D-lysine in Neurobasal medium supplemented with 2% B27 (Invitrogen), 100 units/ml penicillin, 100 μg/ml streptomycin, and 2 mM L-glutamine. Primary NSCs from normal mice were isolated from the subventricular zone (SVZ) of 8 week-old C57BL/6 mice brain. NSCs from adult Tg2576 mice brain were obtained from Seoul National University Hospital. The neurospheres were cultured as previously described (M. Y. Kim, B. S. Moon, K. Y. Choi, Isolation and maintenance of cortical neural progenitor cells in vitro. Methods Mol Biol 1018, 3-10 (2013)). For neurosphere culture from normal mice, the cells were dissociated from brain tissue and grown in N2 medium in 25 cm^2 flasks (SPL, Gyeonggi-do, Korea) in suspension. bFGF (20 ng/ml, Peprotech, Princeton, N.J.) and human EGF (20 ng/ml, Peprotech) were added to the media to allow the cells to form neurospheres. For analyses, NSCs were cultured as a monolayer. For differentiation of NSCs, the neurospheres were dissociated with TrypLE (Invitrogen), plated on 15 μg/ml poly-L-ornithine-(Sigma-Aldrich, St. Louis, Mo.) and 10 μg/ml fibronectin (Gibco)-coated plates, and cultured in bFGF- and EGF-depleted N2 medium for 2 days. For neurosphere culture from Tg2576 mice, the cells were grown in DMEM/F12 supplemented with B27 supplements in 75 cm^2 flasks (SPL) in suspension. bFGF (10 ng/ml) and human EGF (10 ng/ml) were added to the media to allow the cells to form neurospheres. For inducing differentiation and AP expression, the neurospheres were dissociated with pipetting, plated on 15 μg/ml poly-L-ornithine- and 10 μg/ml fibronectin (Gibco)-coated plates, and cultured in bFGF- and EGF-depleted medium for 2 days.
(§2) Lysates were centrifuged at 13,000 rpm for 20 min at 4° C., and the protein content in the supernatant was determined using the Bradford assay (Bio-rad, Hercules, Calif.). For subcellular fractionation, cells were lysed with lysis buffer (250 mM Sucrose, 20 mM HEPES, pH 7.4, 10 mM KCl, 1.5 mM MgCl2, 1 mM EGTA, 1 mM EDTA, 1 mM DTT) containing protease inhibitor for 30 min on ice, followed by centrifugation at 720 g for 5 min at 4° C. Supernatants were centrifuged at 15,000 rpm for 10 min at 4° C., and the resulting supernatant was used as the cytosol fraction. After centrifugation at 720 g for 5 min, pellets were washed with lysis buffer and dissolved in nuclear lysis buffer (50 mM Tris HCl, pH 8.0, 150 mM NaCl, 1% NP40, 0.5% sodium deoxycholate, 0.1% SDS, 10% glycerol) as the nuclear fraction. Protein from each sample was subjected to 8%˜15% SDS-PAGE, and the resolved proteins were transferred to nitrocellulose or polyvinylidene fluoride membrane. The membranes were blocked with 5% nonfat milk powder in Tris-buffered saline/Tween 20 (TBST) for 1 h at room temperature, then incubated with anti-phospho-ERK (Cell signaling), anti-ERK (Cell signaling), anti-LAMP1 (Abcam), anti-LC3 (Cell signaling), anti-cathepsin B (Cell signaling), anti-p62 (Cell signaling), anti-p62 (5114, Cell signaling), anti-phospho-mTOR (5536, Cell signaling), anti-mTOR (2983, Cell signaling), anti-phospho-ULK1 (14202, Cell signaling), anti-ULK1 (8054, Cell signaling), anti-TFEB (852501, Biolegend), and anti-GAPDH (Cell signaling) overnight at 4° C.

primary cortical neurons [1] = assay: Dendritic spine formation in primary cortical neurons; type: cell-based, ICR mice; conditions: Aβ1-42 oligomer alone
Protocol: as §1, with “For inducing differentiation and AP expression, the neurospheres were dissociated with pipetting, plated on 15 μg/ml poly-L-ornithine- and 10 μg/ml fibronectin (Gibco)-coated plates, and cultured in bFGF- and EGF-depleted medium for 2 days.” left out

primary cortical neurons [2] = assay: Western blot of primary cortical neurons; type: cell-based, ICR mice; conditions: Aβ1-42 oligomers alone
Protocol: as §2

Molecule | effect of trametinib on increasing mature cathepsin B and decreasing p62 (SH-SY5Y cells) | decrease in number of dendritic spines compared to vehicle treated group (CTL) (primary cortical neurons [1]) [%] | decrease of mature cathepsin B level compared to non-treated neurons (CTL) (primary cortical neurons [2]) [%]
CO/C1=C\C(C)=C\[C@@H](C)[C@@H](O)[C@@H](C)C/C(C)=C/C=C/[C@H](OC)[C@@H]([C@@H](C)[C@@H](O)[C@H](C)[C@@]2(O)C[C@@H](O)[C@H](C)[C@@H](C(C)C)O2)OC1=O [bafilomycin A1] | eliminated the effect of trametinib | – | –
Aβ1-42 oligomers: cytotoxic oligomers of Aβ1-42 used to induce neurotoxic conditions | – | 24 | 26

Source: patent publication US20220265657A1, “ADMINISTRATION METHOD AND DOSAGE REGIMEN FOR TREATMENT OF NEURODEGENERATIVE DISEASES USING TRAMETINIB AND MARKERS” (GENUV INC., priority 2019, published 2022)
